# Data taken from the kinase profiling compilation of Christmann-Franck et al. (2016).
# What was measured:
# Assay in all cases: radiometric filter-binding kinase assay
# [1] = system: AKT2 (human), P31751 [S474D]
# AURKB (human) = AURKB (human) (UniProt Q96GD4)
# CAMKK2 (human) = CAMKK2 (human) (UniProt Q96RR4)
# CHEK1 (human) = CHEK1 (human) (UniProt O14757)
# CHEK2 (human) = CHEK2 (human) (UniProt O96017)
# EPHB4 (human) = EPHB4 (human) (UniProt P54760)
# GCK (human) = GCK (human) (UniProt Q12851)
# IGF1R (human) = IGF1R (human) (UniProt P08069)
# IKBKB (human) = IKBKB (human) (UniProt O14920)
# MAP2K1 (human) = MAP2K1 (human) (UniProt Q02750)
# MAP3K5 (human) = MAP3K5 (human) (UniProt Q99683)
# MAPK1 (human) = MAPK1 (human) (UniProt P28482)
# MAPK10 (human) = MAPK10 (human) (UniProt P53779)
# MAPK15 (human) = MAPK15 (human) (UniProt Q8TD08)
# MAPK3 (human) = MAPK3 (human) (UniProt P27361)
# MAPK9 (human) = MAPK9 (human) (UniProt P45984)
# MAPKAPK2 (human) = MAPKAPK2 (human) (UniProt P49137); conditions: compound 1.0 µM
# MARK2 (human) = MARK2 (human) (UniProt Q7KZI7); conditions: compound 1.0 µM
# MINK1 (human) = MINK1 (human) (UniProt Q8N4C8)
# MKNK1 (human) = MKNK1 (human) (UniProt Q9BUB5)
# MKNK2 (human) = MKNK2 (human) (UniProt Q9HBH9)
# NEK2 (human) = NEK2 (human) (UniProt P51955)
# NTRK1 (human) = NTRK1 (human) (UniProt P04629)
# PHKG1 (human) = PHKG1 (human) (UniProt Q16816)
# PIM2 (human) = PIM2 (human) (UniProt Q9P1W9)
# PKN2 (human) = PKN2 (human) (UniProt Q16513)
# PRKAA1 or PRKAA2 (rat) = conditions: accession and sequence are those of the human protein
# PRKACA (human) = PRKACA (human) (UniProt P17612)
# PRKCA (human) = PRKCA (human) (UniProt P17252)
# RPS6KA1 KD1 KD2 (human) = RPS6KA1 KD1 KD2 (human) (UniProt Q15418)
# SRC (human) = SRC (human) (UniProt P12931)
# [2] = target: STK11 CAB39 STRADA (human) (UniProt Q9Y376+Q7RTN6+Q15831)
# STK3 (human) = STK3 (human) (UniProt Q13188)
# YES1 (human) = YES1 (human) (UniProt P07947)
# Chain of YES1 (human) (P07947 whole entry, looked up): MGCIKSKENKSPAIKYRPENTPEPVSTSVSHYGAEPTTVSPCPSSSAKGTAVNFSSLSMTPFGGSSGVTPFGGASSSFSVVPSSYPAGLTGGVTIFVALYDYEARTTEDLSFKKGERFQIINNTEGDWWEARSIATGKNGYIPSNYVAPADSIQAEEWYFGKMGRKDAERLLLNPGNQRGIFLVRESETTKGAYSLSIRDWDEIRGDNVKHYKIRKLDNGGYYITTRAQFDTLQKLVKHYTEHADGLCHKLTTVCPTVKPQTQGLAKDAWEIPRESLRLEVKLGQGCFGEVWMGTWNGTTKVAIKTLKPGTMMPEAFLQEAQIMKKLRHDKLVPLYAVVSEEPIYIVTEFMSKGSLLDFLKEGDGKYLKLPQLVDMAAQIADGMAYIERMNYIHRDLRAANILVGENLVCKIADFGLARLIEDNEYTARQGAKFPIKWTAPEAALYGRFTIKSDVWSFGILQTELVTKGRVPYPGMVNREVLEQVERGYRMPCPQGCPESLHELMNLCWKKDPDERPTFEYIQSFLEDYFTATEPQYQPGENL
# Chain of CHEK1 (human) (O14757 whole entry, looked up): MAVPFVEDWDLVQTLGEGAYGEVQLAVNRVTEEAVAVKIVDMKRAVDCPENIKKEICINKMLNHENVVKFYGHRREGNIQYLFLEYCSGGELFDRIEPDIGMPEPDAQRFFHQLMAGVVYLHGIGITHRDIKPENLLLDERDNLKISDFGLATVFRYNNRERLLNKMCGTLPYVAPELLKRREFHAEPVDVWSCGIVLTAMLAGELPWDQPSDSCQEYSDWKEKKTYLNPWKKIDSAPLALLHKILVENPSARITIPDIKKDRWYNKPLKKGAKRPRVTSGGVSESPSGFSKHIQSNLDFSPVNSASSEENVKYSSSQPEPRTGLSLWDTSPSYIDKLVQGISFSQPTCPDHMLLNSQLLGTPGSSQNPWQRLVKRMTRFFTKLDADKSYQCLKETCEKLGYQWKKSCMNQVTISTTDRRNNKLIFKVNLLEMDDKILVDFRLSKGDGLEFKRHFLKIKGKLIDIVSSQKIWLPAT
# Chain of MAPK1 (human) (P28482 whole entry, looked up): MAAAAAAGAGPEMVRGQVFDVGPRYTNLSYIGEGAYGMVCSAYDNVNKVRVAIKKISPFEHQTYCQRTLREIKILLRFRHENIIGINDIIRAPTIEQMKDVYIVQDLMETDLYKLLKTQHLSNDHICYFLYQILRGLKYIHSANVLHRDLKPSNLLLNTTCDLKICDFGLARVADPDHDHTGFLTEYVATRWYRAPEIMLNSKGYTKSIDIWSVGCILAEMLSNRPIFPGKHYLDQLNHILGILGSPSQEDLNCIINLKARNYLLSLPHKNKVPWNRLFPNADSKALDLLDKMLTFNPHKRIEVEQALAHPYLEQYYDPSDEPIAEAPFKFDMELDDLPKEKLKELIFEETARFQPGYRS
# Chain of MAPK15 (human) (Q8TD08 whole entry, looked up): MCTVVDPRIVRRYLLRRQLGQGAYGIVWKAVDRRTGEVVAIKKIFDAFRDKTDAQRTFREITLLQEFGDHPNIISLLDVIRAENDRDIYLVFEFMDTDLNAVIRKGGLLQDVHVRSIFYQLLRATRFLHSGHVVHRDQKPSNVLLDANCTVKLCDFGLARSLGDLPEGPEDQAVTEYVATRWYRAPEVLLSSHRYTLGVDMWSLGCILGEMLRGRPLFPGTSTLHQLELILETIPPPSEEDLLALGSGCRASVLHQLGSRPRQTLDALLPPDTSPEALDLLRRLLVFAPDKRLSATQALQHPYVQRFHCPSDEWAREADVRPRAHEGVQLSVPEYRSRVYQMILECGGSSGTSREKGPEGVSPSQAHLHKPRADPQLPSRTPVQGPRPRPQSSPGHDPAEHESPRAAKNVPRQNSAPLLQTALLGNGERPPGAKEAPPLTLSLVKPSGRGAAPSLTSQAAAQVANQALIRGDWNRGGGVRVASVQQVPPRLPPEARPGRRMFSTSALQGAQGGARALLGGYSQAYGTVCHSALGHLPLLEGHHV
# Chain of MKNK1 (human) (Q9BUB5 whole entry, looked up): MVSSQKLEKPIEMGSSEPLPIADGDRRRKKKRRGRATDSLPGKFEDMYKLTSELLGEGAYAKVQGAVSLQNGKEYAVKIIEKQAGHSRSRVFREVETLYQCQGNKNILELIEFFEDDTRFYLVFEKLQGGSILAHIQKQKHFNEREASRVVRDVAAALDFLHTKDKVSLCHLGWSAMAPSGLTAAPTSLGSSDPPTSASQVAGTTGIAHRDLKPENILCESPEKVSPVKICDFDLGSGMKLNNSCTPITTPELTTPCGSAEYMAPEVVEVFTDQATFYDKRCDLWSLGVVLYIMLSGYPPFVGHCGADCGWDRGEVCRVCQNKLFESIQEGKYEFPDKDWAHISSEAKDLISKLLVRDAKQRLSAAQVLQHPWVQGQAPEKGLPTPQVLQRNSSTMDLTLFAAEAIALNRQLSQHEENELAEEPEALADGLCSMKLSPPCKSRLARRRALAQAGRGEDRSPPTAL
# Chain of IKBKB (human) (O14920 whole entry, looked up): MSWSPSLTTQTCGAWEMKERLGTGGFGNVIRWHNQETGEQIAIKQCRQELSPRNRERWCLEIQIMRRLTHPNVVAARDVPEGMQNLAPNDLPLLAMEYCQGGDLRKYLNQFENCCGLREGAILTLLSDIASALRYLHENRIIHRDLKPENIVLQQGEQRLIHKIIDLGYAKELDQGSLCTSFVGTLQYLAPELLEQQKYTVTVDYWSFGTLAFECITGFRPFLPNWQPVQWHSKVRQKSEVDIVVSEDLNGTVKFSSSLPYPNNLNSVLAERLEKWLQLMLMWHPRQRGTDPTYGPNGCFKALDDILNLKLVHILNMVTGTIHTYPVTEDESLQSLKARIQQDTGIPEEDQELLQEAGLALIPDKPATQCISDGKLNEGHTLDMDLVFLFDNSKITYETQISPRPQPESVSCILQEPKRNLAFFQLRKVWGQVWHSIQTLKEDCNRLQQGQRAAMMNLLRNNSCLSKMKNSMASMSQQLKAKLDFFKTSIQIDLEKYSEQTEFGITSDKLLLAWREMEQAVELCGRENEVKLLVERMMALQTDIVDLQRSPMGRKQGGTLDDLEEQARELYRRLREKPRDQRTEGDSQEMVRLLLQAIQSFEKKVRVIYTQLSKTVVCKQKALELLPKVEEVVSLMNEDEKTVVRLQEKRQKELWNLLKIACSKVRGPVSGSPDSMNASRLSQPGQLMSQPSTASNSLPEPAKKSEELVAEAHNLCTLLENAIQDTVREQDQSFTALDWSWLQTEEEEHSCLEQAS
# Chain of CAMKK2 (human) (Q96RR4 whole entry, looked up): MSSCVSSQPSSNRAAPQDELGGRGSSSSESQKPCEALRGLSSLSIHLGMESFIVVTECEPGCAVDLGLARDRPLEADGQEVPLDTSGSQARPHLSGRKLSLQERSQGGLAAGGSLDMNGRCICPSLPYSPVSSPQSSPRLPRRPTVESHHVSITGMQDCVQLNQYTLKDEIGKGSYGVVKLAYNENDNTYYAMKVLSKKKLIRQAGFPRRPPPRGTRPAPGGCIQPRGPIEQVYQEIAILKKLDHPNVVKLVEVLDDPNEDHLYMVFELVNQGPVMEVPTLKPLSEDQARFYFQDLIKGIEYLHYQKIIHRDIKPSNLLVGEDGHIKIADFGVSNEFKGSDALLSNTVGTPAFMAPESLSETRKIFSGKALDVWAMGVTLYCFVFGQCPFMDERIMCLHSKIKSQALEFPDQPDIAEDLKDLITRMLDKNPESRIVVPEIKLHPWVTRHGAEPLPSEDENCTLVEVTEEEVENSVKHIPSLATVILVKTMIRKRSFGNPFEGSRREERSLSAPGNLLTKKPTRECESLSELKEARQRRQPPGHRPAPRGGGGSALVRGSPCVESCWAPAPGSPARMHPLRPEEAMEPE
# Chain of MAPK9 (human) (P45984 whole entry, looked up): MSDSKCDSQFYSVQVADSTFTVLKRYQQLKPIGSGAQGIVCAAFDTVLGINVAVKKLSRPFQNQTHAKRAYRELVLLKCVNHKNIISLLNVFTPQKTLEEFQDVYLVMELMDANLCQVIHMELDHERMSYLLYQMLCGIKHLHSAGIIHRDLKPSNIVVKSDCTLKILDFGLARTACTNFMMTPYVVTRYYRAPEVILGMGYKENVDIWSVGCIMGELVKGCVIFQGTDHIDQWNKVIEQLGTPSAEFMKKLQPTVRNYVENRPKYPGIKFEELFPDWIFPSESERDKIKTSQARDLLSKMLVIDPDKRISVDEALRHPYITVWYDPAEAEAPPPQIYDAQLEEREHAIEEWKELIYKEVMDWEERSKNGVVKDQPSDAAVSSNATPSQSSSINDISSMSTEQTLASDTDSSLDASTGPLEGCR
# Chain of NTRK1 (human) (P04629 whole entry, looked up): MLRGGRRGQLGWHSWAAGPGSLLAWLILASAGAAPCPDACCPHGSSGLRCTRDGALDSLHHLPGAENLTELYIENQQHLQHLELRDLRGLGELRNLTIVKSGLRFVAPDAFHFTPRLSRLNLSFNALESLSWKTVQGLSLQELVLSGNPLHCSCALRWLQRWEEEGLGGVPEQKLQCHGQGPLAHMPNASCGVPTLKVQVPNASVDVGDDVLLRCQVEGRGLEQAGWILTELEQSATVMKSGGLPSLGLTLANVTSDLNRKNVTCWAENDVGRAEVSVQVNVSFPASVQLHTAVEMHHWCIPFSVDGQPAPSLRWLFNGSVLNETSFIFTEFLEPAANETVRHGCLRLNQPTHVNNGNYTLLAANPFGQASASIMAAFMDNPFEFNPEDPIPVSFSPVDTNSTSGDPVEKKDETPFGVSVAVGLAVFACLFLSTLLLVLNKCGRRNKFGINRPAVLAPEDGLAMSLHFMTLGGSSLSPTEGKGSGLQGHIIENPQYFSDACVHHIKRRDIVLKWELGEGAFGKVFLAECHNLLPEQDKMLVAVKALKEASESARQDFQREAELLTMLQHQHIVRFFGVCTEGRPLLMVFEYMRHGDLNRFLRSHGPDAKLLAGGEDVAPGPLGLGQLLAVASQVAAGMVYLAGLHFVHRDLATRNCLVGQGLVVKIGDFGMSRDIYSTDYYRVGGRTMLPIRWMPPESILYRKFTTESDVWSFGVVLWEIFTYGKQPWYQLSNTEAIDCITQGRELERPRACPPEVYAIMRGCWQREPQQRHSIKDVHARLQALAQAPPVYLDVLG
compound,measurement,setting,value
NC(=O)c1c(NC(=O)C2CC2)sc2c1CCCC2,residual activity,[1]; compound 1.0 µM,100%
same,residual activity,[1]; compound 10.0 µM,96%
same,residual activity,AURKB (human); compound 1.0 µM,79%
same,residual activity,AURKB (human); compound 10.0 µM,62%
same,residual activity,CAMKK2 (human); compound 1.0 µM,106%
same,residual activity,CAMKK2 (human); compound 10.0 µM,48%
same,residual activity,CHEK1 (human); compound 1.0 µM,95%
same,residual activity,CHEK1 (human); compound 10.0 µM,84%
same,residual activity,CHEK2 (human); compound 1.0 µM,74%
same,residual activity,CHEK2 (human); compound 10.0 µM,35%
same,residual activity,EPHB4 (human); compound 1.0 µM,101%
same,residual activity,EPHB4 (human); compound 10.0 µM,55%
same,residual activity,GCK (human); compound 1.0 µM,69%
same,residual activity,GCK (human); compound 10.0 µM,17%
same,residual activity,IGF1R (human); compound 1.0 µM,86%
same,residual activity,IGF1R (human); compound 10.0 µM,79%
same,residual activity,IKBKB (human); compound 1.0 µM,100%
same,residual activity,IKBKB (human); compound 10.0 µM,93%
same,residual activity,MAP2K1 (human); compound 1.0 µM,92%
same,residual activity,MAP2K1 (human); compound 10.0 µM,88%
same,residual activity,MAP3K5 (human); compound 1.0 µM,106%
same,residual activity,MAP3K5 (human); compound 10.0 µM,96%
same,residual activity,MAPK1 (human); compound 1.0 µM,99%
same,residual activity,MAPK1 (human); compound 10.0 µM,89%
same,residual activity,MAPK10 (human); compound 1.0 µM,94%
same,residual activity,MAPK10 (human); compound 10.0 µM,84%
same,residual activity,MAPK15 (human); compound 1.0 µM,106%
same,residual activity,MAPK15 (human); compound 10.0 µM,67%
same,residual activity,MAPK3 (human); compound 1.0 µM,107%
same,residual activity,MAPK3 (human); compound 10.0 µM,125%
same,residual activity,MAPK9 (human); compound 1.0 µM,106%
same,residual activity,MAPK9 (human); compound 10.0 µM,96%
same,residual activity,MAPKAPK2 (human),98%
same,residual activity,MARK2 (human),97%
same,residual activity,MINK1 (human); compound 1.0 µM,80%
same,residual activity,MINK1 (human); compound 10.0 µM,37%
same,residual activity,MKNK1 (human); compound 1.0 µM,97%
same,residual activity,MKNK1 (human); compound 10.0 µM,77%
same,residual activity,MKNK2 (human); compound 1.0 µM,106%
same,residual activity,MKNK2 (human); compound 10.0 µM,115%
same,residual activity,NEK2 (human); compound 1.0 µM,99%
same,residual activity,NEK2 (human); compound 10.0 µM,92%
same,residual activity,NTRK1 (human); compound 1.0 µM,90%
same,residual activity,NTRK1 (human); compound 10.0 µM,30%
same,residual activity,PHKG1 (human); compound 1.0 µM,108%
same,residual activity,PHKG1 (human); compound 10.0 µM,62%
same,residual activity,PIM2 (human); compound 1.0 µM,98%
same,residual activity,PIM2 (human); compound 10.0 µM,92%
same,residual activity,PKN2 (human); compound 1.0 µM,106%
same,residual activity,PKN2 (human); compound 10.0 µM,97%
same,residual activity,PRKAA1 or PRKAA2 (rat); compound 1.0 µM,103%
same,residual activity,PRKAA1 or PRKAA2 (rat); compound 10.0 µM,86%
same,residual activity,PRKACA (human); compound 1.0 µM,100%
same,residual activity,PRKACA (human); compound 10.0 µM,102%
same,residual activity,PRKCA (human); compound 1.0 µM,93%
same,residual activity,PRKCA (human); compound 10.0 µM,86%
same,residual activity,RPS6KA1 KD1 KD2 (human); compound 1.0 µM,101%
same,residual activity,RPS6KA1 KD1 KD2 (human); compound 10.0 µM,95%
same,residual activity,SRC (human); compound 1.0 µM,102%
same,residual activity,SRC (human); compound 10.0 µM,87%
same,residual activity,[2]; compound 1.0 µM,91%
same,residual activity,[2]; compound 10.0 µM,81%
same,residual activity,STK3 (human); compound 1.0 µM,90%
same,residual activity,STK3 (human); compound 10.0 µM,53%
same,residual activity,YES1 (human); compound 1.0 µM,92%
same,residual activity,YES1 (human); compound 10.0 µM,79%
